According to ChEMBL document CHEMBL1132102, “Dysidiolide and related gamma-hydroxy butenolide compounds as inhibitors of the protein tyrosine phosphatase, CDC25” (Bioorg Med Chem Lett, 1999):

What was measured:
[1] = molecular target: T1, M-phase inducer phosphatase 2 (Homo sapiens, UniProt P30305); assay: In vitro inhibitory activity against human Cell division cycle 25B
T1 sequence (P30305 whole entry): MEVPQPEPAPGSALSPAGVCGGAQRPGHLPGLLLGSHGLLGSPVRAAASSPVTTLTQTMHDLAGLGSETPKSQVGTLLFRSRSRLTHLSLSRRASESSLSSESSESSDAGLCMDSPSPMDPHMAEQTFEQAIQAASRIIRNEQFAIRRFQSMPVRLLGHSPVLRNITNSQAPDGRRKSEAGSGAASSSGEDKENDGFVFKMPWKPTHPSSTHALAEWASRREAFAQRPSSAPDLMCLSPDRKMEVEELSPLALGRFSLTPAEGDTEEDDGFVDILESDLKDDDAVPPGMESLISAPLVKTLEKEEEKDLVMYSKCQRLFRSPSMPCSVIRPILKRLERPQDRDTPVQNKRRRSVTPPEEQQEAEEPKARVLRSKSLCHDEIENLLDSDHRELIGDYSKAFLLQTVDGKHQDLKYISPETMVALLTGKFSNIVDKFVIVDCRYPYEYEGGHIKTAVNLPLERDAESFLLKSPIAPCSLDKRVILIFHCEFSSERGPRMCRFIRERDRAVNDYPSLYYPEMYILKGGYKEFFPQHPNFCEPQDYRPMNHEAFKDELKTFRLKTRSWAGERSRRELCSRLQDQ

[2] = molecular target: T2, M-phase inducer phosphatase 3 (Homo sapiens, UniProt P30307); assay: In vitro inhibitory activity against human Cell division cycle 25 degree C
T2 sequence (P30307 whole entry): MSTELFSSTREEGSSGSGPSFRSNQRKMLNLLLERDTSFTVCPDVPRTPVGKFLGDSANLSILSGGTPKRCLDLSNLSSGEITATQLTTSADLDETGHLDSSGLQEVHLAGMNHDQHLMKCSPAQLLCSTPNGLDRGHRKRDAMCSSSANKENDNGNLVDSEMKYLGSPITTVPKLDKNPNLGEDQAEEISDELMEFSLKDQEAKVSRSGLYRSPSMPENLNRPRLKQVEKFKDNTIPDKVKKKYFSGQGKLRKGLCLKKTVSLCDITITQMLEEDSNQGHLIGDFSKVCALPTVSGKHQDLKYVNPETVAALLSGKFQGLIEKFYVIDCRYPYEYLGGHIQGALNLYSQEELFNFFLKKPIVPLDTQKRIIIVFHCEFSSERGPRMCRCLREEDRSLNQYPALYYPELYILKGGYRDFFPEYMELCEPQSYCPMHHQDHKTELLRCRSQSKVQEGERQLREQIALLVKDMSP

IC50 [1]: > 2 mM
IC50 [2]: > 2 mM
SMILES: C=C(C)CCC[C@@]1(C)CCC[C@@]2(C)C1=CC[C@H](C)[C@]2(C)C[C@@H](O)C1=CC(=O)O[C@@H]1O (stereo in doubt; form 2)
